Patent US11578055B2, “Triazacyclododecansulfonamide (“TCD”)-based protein secretion inhibitors” (KEZAR LIFE SCIENCES, priority 2018, dated 2023)
Where two headings read alike, the source gives them in different places.

Columns and labels:
IL-2 = test: Human PBMC Cytokine Assay: IL-2; type: cell-based; details: anti-CD3/CD28 stimulation, 24 hours
Description: (§1) Human PBMC were freshly isolated from whole blood collections of 3 normal donors utilizing density gradient centrifugation followed by red blood cell lysis. PBMC from each donor were assayed separately. Cells were suspended in RPMI 1640 media supplemented with 5% fetal bovine serum, 2 mM L-glutamine, 10 mM HEPES, and 1× penicillin/streptomycin. PBMC were seeded at 200,000 cells/well in 96-well round-bottom plates either without stimulation or with stimulation by lipopolysaccharide (LPS, 1 μg/mL) or antibodies against human CD3 (plate-bound, 2 μg/mL) and human CD28 (soluble, 2 μg/mL). Serial dilutions of compound in DMSO/media were simultaneously added and PBMC were incubated at 37° C., 5% CO2 for 24 hours. After 24 hours, plates were centrifuged and half of the supernatant volume removed for cytokine analysis by electrochemiluminescent immunoassay (U-PLEX® Biomarker Multiplex, Meso Scale Discovery). For viability analysis, CellTiter-Glo® (Promega) was added to the remaining material in each well and quantified via luminescent plate reader.

[1] = In Vitro Microsome Stability Assay (monkey); type: in vitro ADME
Method in brief: (§2)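 The value reported is the percentage of parent left after 30 min, calculated from analyte/IS peak-area ratios relative to time zero by LC-MS/MS. Incubations ran at 37° C in 0.1 M potassium phosphate with NADPH and microsomes (stock 20 mg/mL), with compound added from a 0.25 mM DMSO stock. Acetonitrile containing IS stopped the reactions.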

[2] = system: full length IL-2 (amino acids 1-153) fused to Gaussia Luciferase; test: Dox Induced IL2-FL-Gluc Assay; type: cell-based; details: 24 hr, read-out: 24 hr Dox Inducible IL2FLGluc 293FRT/TO: Mean IC50
Method in brief: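 Flp-In 293 T-REx stable line expressing full-length IL-2 (aa 1-153) with C-terminal Gaussia luciferase fusion under doxycycline-inducible control. Cells plated the day before; compound dilutions added in DMSO/media containing doxycycline, incubated at 37° C, 5% CO2.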

[3] = system: multiple myeloma cell line NCl-H929; test: H929 Cell Viability Assay; type: cell-based, human; details: Homo sapiens, NCI-H929, 48 h
Method in brief: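 NCI-H929 myeloma cells in RPMI 1640 with 10% FBS were treated with compound dilutions for 48 h at 37 °C, and viability was then read by CellTiter-Glo luminescence. Compounds drawn without stereochemistry were tested as stereoisomer mixtures.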

Human PBMC = Human PBMC CellTiter-Glo viability; type: cell-based; details: no stimulation, 24 hours
Description: as §1

[4] = In Vitro Microsome Stability Assay (mouse); type: in vitro ADME
Method in brief: as §2

[5] = system: full length TNFα (amino acids 1-233) fused to Gaussia Luciferase; test: Dox Induced TNFα-FL-Gluc Assay; type: cell-based; details: 24 hr, read-out: 24 hr Dox Inducible TNFaFLGluc 293FRT/TO: Mean IC50
Method in brief: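 Stable Flp-In 293 T-REx line expressing doxycycline-inducible full-length TNFα fused to Gaussia luciferase; cells plated the day before, then treated with compound dilutions in doxycycline-containing medium at 37° C, 5% CO2. Unspecified stereocentres mean stereoisomer mixtures were tested.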

[6] = In Vitro Microsome Stability Assay (human); type: in vitro ADME
Method in brief: as §2

IL-6 = test: Human PBMC Cytokine Assay: IL-6; type: cell-based; details: LPS stimulation, 24 hours
Description: as §1

GM-CSF = test: Human PBMC Cytokine Assay: GM-CSF; type: cell-based; details: anti-CD3/CD28 stimulation, 24 hours
Description: as §1

TNFα = test: Human PBMC Cytokine Assay: TNFα; type: cell-based; details: anti-CD3/CD28 stimulation, 24 hours
Description: as §1

IL-23 = test: Human PBMC Cytokine Assay: IL-23; type: cell-based; details: LPS stimulation, 24 hours
Description: as §1

IL-1β = test: Human PBMC Cytokine Assay: IL-1β; type: cell-based; details: LPS stimulation, 24 hours
Description: as §1

[7] = In Vitro Microsome Stability Assay (rat); type: in vitro ADME
Method in brief: as §2

[8] = system: PD1 signal sequence plus 10 amino acids fused to Gaussia Luciferase (PD1-ss+10aa/Gaussia Luciferase); test: Dox Induced PD1-ss-Gluc Assay; type: cell-based; details: 24 hr, read-out: 24 hr Dox Inducible PD1ssGluc 293FRT/TO: Mean IC50
Method in brief: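 Stable Flp-In 293 T-REx line expressing the fusion under tetracycline-inducible control, plated the day before assay. Compound dilutions added with doxycycline and incubated at 37 °C, 5% CO2; unspecified stereocentres mean data refer to stereoisomer mixtures.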

[9] = system: multiple myeloma cell line U266B1; test: U266 Cell Viability Assay; type: cell-based, human; details: Homo sapiens, U-266, 48 hr
Method in brief: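 U266B1 myeloma cells in RPMI 1640 with 10% FBS were treated with compound dilutions for 48 h at 37° C, 5% CO2. Viability was read as CellTiter-Glo luminescence. Data for structures drawn without stereochemistry refer to stereoisomer mixtures.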

IFNγ = test: Human PBMC Cytokine Assay: IFNγ; type: cell-based; details: anti-CD3/CD28 stimulation, 24 hours
Description: as §1

[10] = system: full length PD1 (amino acids 1-288) fused to Firefly Luciferase; test: Dox Induced PD1-FL-Gluc Assay; type: cell-based; details: 24 hr, 293FRT/TO; read-out: 24 hr Dox Inducible PD1FLFluc 293FRT/TO: Mean IC50
Source text: FIp-In 293 T-REx™ cells were transfected with pcDNA™5/FRT/TO plasmid inserted with cDNA encoding Firefly Luciferase fused to the 3′ end of cDNA encoding full length PD1 (amino acids 1-288). Transfected cells were selected for resistance to the selectable markers Hygromycin and Blasticidin to create a stable cell line that contained the PD1-FL/Firefly Luciferase cDNA insert whose expression was regulated under the T-REx™ system. The day before assay, cells were trypsinized and plated in 384-well tissue culture plates. The next day, compound dilutions in DMSO/media containing doxycycline were added to the wells and incubated at 37° C., 5% CO2.
For chemical structures that include one or more stereoisomers, but are illustrated without indicating stereochemistry, the assay data refers to a mixture of stereoisomers.

[11] = H929, read-out: 48 hr H929 Viability Celltiter-Glo: Mean EC50
[12] = U266, read-out: 48 hr U266 Viability Celltiter-Glo: Mean EC50

Liver Microsome Stability-% Left after 30 min w/ NADPH (%) Monkey ([1]; monkey, 30 min, NADPH) [%] | IC50 ([2]; 293FRT/TO) [nM] | EC50 [3, 11] [nM] | Liver Microsome Stability-% Left after 30 min w/ NADPH (%) Mouse ([4]; mouse, 30 min, NADPH) [%] | IC50 ([5]; 293FRT/TO) [nM] | Liver Microsome Stability-% Left after 30 min w/ NADPH (%) Human ([6]; human, 30 min, NADPH) [%] | IC50 [10] [nM] | Liver Microsome Stability-% Left after 30 min w/ NADPH (%) Rat ([7]; rat, 30 min, NADPH) [%] | IC50 ([8]; 293FRT/TO) [nM] | EC50 [9, 12] [nM] | Compound | other results
– | – | – | – | – | – | – | – | – | – | Cc1ccccc1CN1CCCN(S(=O)(=O)c2ccc(N(C)C)cc2)C[C@H](C)CN(S(=O)(=O)N2CCc3cc(Cl)ccc3C2)CCC1 [A133, 4-{[(3S)-5-[(6-chloro-1,2,3,4-tetrahydroisoquinolin-2-yl)sulfonyl]-3-methyl-9-[(2-methylphenyl)methyl]-1,5,9-triazacyclododecan-1-yl]sulfonyl}-N,N-dimethylaniline] | IC50 (IL-2): 197 nM; Liver Microsome Stability-% Left after 30 min w/ NADPH (%) Monkey ([1]; monkey liver microsomes, 30 min w/ NADPH): 67.3%; IC50 ([2]; Dox inducible, 293FRT/TO cells): 135 nM; EC50 ([3]; H929, Celltiter-Glo): 5120 nM; IC50 (Human PBMC): > 25000 nM; Liver Microsome Stability-% Left after 30 min w/ NADPH (%) Mouse ([4]; mouse liver microsomes, 30 min w/ NADPH): 82.2%; IC50 ([5]; Dox inducible, 293FRT/TO cells): 749 nM; Liver Microsome Stability-% Left after 30 min w/ NADPH (%) Human ([6]; human liver microsomes, 30 min w/ NADPH): 71.3%; IC50 (IL-6): 193 nM; IC50 (GM-CSF): 404 nM; IC50 (TNFα): 216 nM; IC50 (IL-23): 1050 nM; IC50 (IL-1β): > 25000 nM; Liver Microsome Stability-% Left after 30 min w/ NADPH (%) Rat ([7]; rat liver microsomes, 30 min w/ NADPH): 87.3%; IC50 ([8]; Dox inducible, 293FRT/TO cells): 36.8 nM; EC50 ([9]; U266, Celltiter-Glo): > 25000 nM; IC50 (IFNγ): 234 nM
0.79 | 57 | 1010 | 70.1 | 661 | 1.32 | 74.1 | 3.6 | 22.2 | 6540 | C=C1CN(S(=O)(=O)c2ccc(N(C)C)cc2)CCCN(CC2CCCCC2)CCCN(S(=O)(=O)N2CCc3ccccc3C2)C1 [A50, 4-{[9-(cyclohexylmethyl)-3-methylidene-5-(1,2,3,4-tetrahydroisoquinoline-2-sulfonyl)-1,5,9-triazacyclododecan-1-yl]sulfonyl}-N,N-dimethylaniline] | –
1.4 | 1160 | > 25000 | 5.39 | > 25000 | 0.08 | 1230 | 1.13 | 640 | > 25000 | Cc1ccc(S(=O)(=O)N2CCCN(CC3CCCCC3)CCCN(S(=O)(=O)c3ccc(N(C)C)cc3)CCC2)cc1 [A14, 4-((5-(cyclohexylmethyl)-9-tosyl-1,5,9-triazacyclododecan-1-yl)sulfonyl)-N,N-dimethylaniline] | –
0.11 | 370 | 6670 | 0.12 | 6380 | 0.16 | 404 | 0.4 | 156 | > 25000 | CC1CCN(S(=O)(=O)N2CCCN(CC3CCCCC3)CCCN(S(=O)(=O)c3ccc(N(C)C)cc3)CC3(CC3)C2)CC1 [A22, 4-{[9-(cyclohexylmethyl)-13-[(4-methylpiperidin-1-yl)sulfonyl]-5,9,13-triazaspiro[2.11]tetradecan-5-yl]sulfonyl}-N,N-dimethylaniline] | –
0.28 | 233 | 3030 | 2.75 | 3780 | 3.08 | 256 | 7.54 | 104 | > 25000 | CN(C)c1ccc(S(=O)(=O)N2CCCN(CC3CCCCC3)CCCN(S(=O)(=O)N3CCC(c4ccccc4)CC3)C/C(=N/O)C2)cc1 [A75, 9-(cyclohexylmethyl)-1-((4-(dimethylamino)phenyl)sulfonyl)-5-((4-phenylpiperidin-1-yl)sulfonyl)-1,5,9-triazacyclododecan-3-one oxime] | –
20.8 | 360 | 4010 | 37.3 | 5540 | 30.1 | 338 | 32.5 | 95 | > 25000 | C[C@H]1CN(S(=O)(=O)c2ccc(N(C)C)cc2)CCCN(CC2CCCCC2)CCCN(S(=O)(=O)N2CCC(c3ccccc3)CC2)C1 [A77, 4-{[(3S)-9-(cyclohexylmethyl)-3-methyl-5-[(4-phenylpiperidin-1-yl)sulfonyl]-1,5,9-triazacyclododecan-1-yl]sulfonyl}-N,N-dimethylaniline] | –
0.18 | 1170 | > 25000 | 0.21 | > 25000 | 0.18 | 1400 | 0.12 | 1030 | > 25000 | C=C1CN(S(=O)(=O)c2ccc(C)cc2)CCCN(Cc2ccccc2)CCCN(S(=O)(=O)c2ccc(C)cc2)C1 [A1] | –
